The values that follow come from patent publication US10130636B2, “High dosage strength tablets of rucaparib” (Clovis Oncology, Inc., priority 2014, dated 2018).

Like-named read-outs stand apart in the source and are kept apart here.

A short description of data set [1]: CTC profiles (compressibility, tabletability, compactability) of rucaparib salt intra granular formulations. It is filed as physicochemical. The settings on record: for formation of compacts: pure API without excipients, maleate also at 90% loading, 100 mg compacts. An excerpt:
The most relevant and broadly accepted approach to assessing compression evaluation of different formulations (and different API salts) is by measuring the interrelationships of compression stress, solid fraction, and tensile strength using a compaction simulator. These parameters are related to each other in a set of relationships referred to as compressibility, tabletability, and compactability profiles (i.e., CTC Profiles) (Tye, Sun, Amidon, J. Pharm. Sci, 94: 465-472, (2005)). Focus was on the intra granular blend rather than the final blend because nearly all of the lead formulation is processed through dry granulation; only a small portion is extra granular. Additionally, the extra granular lubrication step at small scale is not representative of downstream pilot or commercial processing and risks masking intrinsic compressibility properties. For the provided lot of each salt form, formulations were evaluated at 100%, 90%, 75%, and 60% of the final tablet formulation (this correlates to 100%, 90.68%, 75.57%, and 60.45% intra granular components). CTC profiles for each API and formulation were determined by compressing (Texture Technologies model TA.XT Plus Texture Analyzer), in triplicate, 1⁄4'' round flat-faced 100 mg compacts using a linear sawtooth strain profile at 5 mm/sec velocity to four pre-programmed peak forces encompassing roller compaction and tableting compression stress ranges (e.g., up to 240 MPa). The compacts were then evaluated for physical dimensions, weight, and hardness. […] The maximum acceptable compression stress considered within normal ranges of a commercial rotary tablet press is approximately 250 MPa. Similarly, a typical target tensile strength for tablets is 2 MPa; such tablets generally have low friability, and are suitable for downstream handling and film coating. Thus, if a given formulation can be compressed to a tensile strength of 2 MPa at a compression stress of less than 250 MPa, it is considered to have acceptable compressibility.

The conditions of data set [2]: as stated in U.S. Pat. No. 8,754,072; compared to other salt forms; cited from earlier work.
A short description of data set [3]: Hygroscopicity of rucaparib salts. It is filed as physicochemical. The following applies: compared to other salts of rucaparib.
Setting [4] is: Drug Load 60%, Compression Stress 47.9 MPa.
Setting [5] is: Drug Load 60%, Compression Stress 80.3-80.4 MPa.
Setting [6] is: Drug Load 60%, Compression Stress 176.0-177.0 MPa.
The mark [7] stands for this setting: Drug Load 60%, Compression Stress 239.5-240.4 MPa.
Setting [8] is: Drug Load 75%, Compression Stress 48.3-48.5 MPa.
Where [9] appears, read: Drug Load 75%, Compression Stress 80.5-80.8 MPa.
Setting [10] is: Drug Load 75%, Compression Stress 176.8-177.8 MPa.
Setting [11] is: Drug Load 75%, Compression Stress 240.1-240.7 MPa.

In the case of Rucaparib Maleate, the “tabletability, fold lower than the camsylate salt” value in data set [1] (60 and 75% API loading) is 2-2.5 ×. The “Tensile Strength” value is on record as 0.3 MPa in data set [1] (setting [4]); 0.6 MPa in data set [1] (setting [5]); 1.2 MPa in data set [1] (setting [6]); 1.4 MPa in data set [1] (setting [7]); 0.2 MPa in data set [1] (setting [8]); 0.4 MPa in data set [1] (setting [9]). Also, the “Tensile Strength” value in data set [1] (setting [10]) and in data set [1] (setting [11]) was 0.8 MPa throughout. In data set [1] (estimated, target >70%), the “drug loading needed to obtain tablets with sufficient strength” value is under 50%. Moreover, the formation of compacts entry in data set [1] is recorded as “not able to be formed”. Moreover, the hygroscopicity entry in data set [2] is listed as “less hygroscopic”.

On to `CNCc1ccc(-c2[nH]c3cc(F)cc4c3c2CCNC4=O)cc1` [Camsylate, Rucaparib Camsylate], for which the “Tensile Strength” value in data set [1] (setting [4]) was 0.6 MPa; in data set [1] (setting [5]), 1.3 MPa; in data set [1] (setting [6]), 2.6 MPa; in data set [1] (setting [7]) it was 3.1 MPa; in data set [1] (setting [8]), 0.6 MPa; in data set [1] (setting [9]) it was 1.1 MPa. For the same compound, the “Tensile Strength” value in data set [1] (setting [10]) is on record as 2.3 MPa; in data set [1] (setting [11]) it was 2.8 MPa. Besides, in data set [1], the formation of compacts entry was “formed good compacts”. The hygroscopicity result is reported as “low hygroscopicity” in data set [3] and “less hygroscopic” in data set [2].
